Laboratory results: patent publication US10717716B2, “1,3,4-oxadiazole derivative compounds as histone deacetylase 6 inhibitor, and the pharmaceutical composition comprising the same” (Chong Kun Dang Pharmaceutical Corp., priority 2015, dated 2020)

Molecular target: T1, human recombinant HDAC6 (Homo sapiens, UniProt Q9UBN7)
T1 construct: purchased Calbiochem 382180
T1 sequence (Q9UBN7 1-1215): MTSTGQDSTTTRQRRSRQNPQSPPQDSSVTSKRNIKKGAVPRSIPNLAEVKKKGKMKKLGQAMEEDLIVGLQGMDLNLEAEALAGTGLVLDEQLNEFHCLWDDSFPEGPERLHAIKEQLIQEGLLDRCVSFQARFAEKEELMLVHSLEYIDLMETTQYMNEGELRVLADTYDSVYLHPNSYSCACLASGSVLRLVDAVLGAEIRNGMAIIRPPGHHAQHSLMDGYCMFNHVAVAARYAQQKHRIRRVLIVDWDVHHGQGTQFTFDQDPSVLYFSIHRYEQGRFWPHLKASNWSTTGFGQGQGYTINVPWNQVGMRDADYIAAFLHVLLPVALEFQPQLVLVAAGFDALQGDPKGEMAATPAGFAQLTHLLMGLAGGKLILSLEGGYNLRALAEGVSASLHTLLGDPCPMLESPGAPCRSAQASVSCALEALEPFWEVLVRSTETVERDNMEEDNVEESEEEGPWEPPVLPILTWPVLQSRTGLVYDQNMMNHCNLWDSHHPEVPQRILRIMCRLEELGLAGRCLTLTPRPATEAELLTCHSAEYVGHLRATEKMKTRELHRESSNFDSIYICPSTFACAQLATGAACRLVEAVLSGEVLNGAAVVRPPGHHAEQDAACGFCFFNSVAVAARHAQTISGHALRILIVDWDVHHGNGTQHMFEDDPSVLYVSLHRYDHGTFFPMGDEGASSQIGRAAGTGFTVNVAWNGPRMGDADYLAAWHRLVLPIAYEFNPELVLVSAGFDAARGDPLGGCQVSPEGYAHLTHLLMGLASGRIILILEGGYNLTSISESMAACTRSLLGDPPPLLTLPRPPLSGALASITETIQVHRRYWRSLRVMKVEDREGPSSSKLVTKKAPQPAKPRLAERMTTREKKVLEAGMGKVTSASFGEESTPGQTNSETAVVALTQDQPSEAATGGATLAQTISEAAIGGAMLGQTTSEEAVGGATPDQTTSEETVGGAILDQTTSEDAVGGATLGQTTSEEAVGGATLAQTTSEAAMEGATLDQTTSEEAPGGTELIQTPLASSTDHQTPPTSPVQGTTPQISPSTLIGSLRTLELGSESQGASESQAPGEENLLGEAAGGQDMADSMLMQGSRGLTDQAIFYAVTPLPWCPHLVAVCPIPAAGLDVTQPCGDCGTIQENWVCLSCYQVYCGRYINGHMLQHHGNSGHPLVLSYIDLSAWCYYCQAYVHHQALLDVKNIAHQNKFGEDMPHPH
Test: HDAC6 enzyme activity inhibition assay (HDAC Fluorimetric Drug Discovery Kit)
Assay type: biochemical
Conditions: for HDAC6 selectivity (fold): HDAC6 over HDAC1; for IC50: human recombinant HDAC6, same protocol as HDAC1, read-out: HDAC6
Outline: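 Fluorimetric deacetylase assay: 5-fold serial compound dilutions, 0.3 μg recombinant human enzyme (HDAC1 or HDAC6, same protocol), 10 μM Fluor de Lys-SIRT1 substrate, 60 min at 30 °C. Signal developed 30 min, measured at 360/460 nm; IC50 values derived.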

| Compound | HDAC6 selectivity (fold) | IC50 |
| --- | --- | --- |
| COc1ccc(N(Cc2ccc(-c3nnc(C(F)F)o3)cc2F)C(=O)N2CCS(=O)(=O)CC2)cc1 [Compound 21478, N-(4-(5-(difluoromethyl)-1,3,4-oxadiazol-2-yl)-2-fluorobenzyl)-N-(4-methoxyphenyl)thiomorpholine-4-carboxamide 1,1-dioxide] | 270 fold | 37 nM |
| COc1ccccc1N(Cc1ccc(-c2nnc(C(F)(F)F)o2)cc1F)C(=O)N1CCS(=O)(=O)CC1 [Compound 21479, N-(2-fluoro-4-(5-(trifluoromethyl)-1,3,4-oxadiazol-2-yl)benzyl)-N-(2-methoxyphenyl)thiomorpholine-4-carboxamide 1,1-dioxide] | 167 fold | 60 nM |
| COc1ccccc1N(Cc1ccc(-c2nnc(C(F)F)o2)cc1F)C(=O)N1CCS(=O)(=O)CC1 [Compound 21480, N-(4-(5-(difluoromethyl)-1,3,4-Oxadiazol-2-yl)-2-fluorobenzyl)-N-(2-methoxyphenyl)thiomorpholine-4-carboxamide 1,1-dioxide] | 204 fold | 49 nM |
| COc1cccc(N(Cc2ccc(-c3nnc(C(F)(F)F)o3)cc2F)C(=O)N2CCS(=O)(=O)CC2)c1 [Compound 21481, N-(2-fluoro-4-(5-(trifluoromethyl)-1,3,4-oxadiazol-2-yl)benzyl)-N-(3-methoxyphenyl)thiomorpholine-4-carboxamide 1,1-dioxide] | 172 fold | 58 nM |
| COc1cccc(N(Cc2ccc(-c3nnc(C(F)F)o3)cc2F)C(=O)N2CCS(=O)(=O)CC2)c1 [Compound 21482, N-(4-(5-(difluoromethyl)-1,3,4-oxadiazol-2-yl)-2-fluorobenzyl)-N-(3-methoxyphenyl)thiomorpholine-4-carboxamide 1,1-dioxide] | 323 fold | 31 nM |
| Cc1cccc(N(Cc2ccc(-c3nnc(C(F)(F)F)o3)cc2F)C(=O)N2CCS(=O)(=O)CC2)c1 [Compound 21483, N-(2-fluoro-4-(5-(trifluoromethyl)-1,3,4-oxadiazol-2-yl)benzyl)-N-(m-tolyl)thiomorpholine-4-carboxamide 1,1-dioxide] | 141 fold | 71 nM |
| Cc1cccc(N(Cc2ccc(-c3nnc(C(F)F)o3)cc2F)C(=O)N2CCS(=O)(=O)CC2)c1 [Compound 21484, N-(4-(5-(difluoromethyl)-1,3,4-oxadiazol-2-yl)-2-fluorobenzyl)-N-(m-tolyl)thiomorpholine-4-carboxamide 1,1-dioxide] | 476 fold | 21 nM |
| O=C(N1CCS(=O)(=O)CC1)N(Cc1ccc(-c2nnc(C(F)F)o2)cc1)c1ccc(-c2ccccc2)cc1 [Compound 21486, N-([1,1′-biphenyl]-4-yl)-N-(4-(5-(difluoromethyl)-1,3,4-oxadiazol-2-yl)benzyl)thiomorpholine-4-carboxamide 1,1-dioxide] | 120 fold | 83 nM |
| Cn1ncc2ccc(-c3ccc(N(Cc4ccc(-c5nnc(C(F)F)o5)cc4)C(=O)N4CCS(=O)(=O)CC4)cc3)cc21 [Compound 21488, N-(4-(5-(difluoromethyl)-1,3,4-oxadiazol-2-yl)benzyl)-N-(4-(1-methyl-1H-indazol-6-yl)phenyl)thiomorpholine-4-carboxamide 1,1-dioxide] | 90 fold | 111 nM |
| O=C(N1CCS(=O)(=O)CC1)N(Cc1ccc(-c2nnc(C(F)F)o2)cc1)c1ccc(-c2cccnc2)cc1 [Compound 21490, N-(4-(5-(difluoromethyl)-1,3,4-oxadiazol-2-yl)benzyl)-N-(4-(pyridin-3-yl)phenyl)thiomorpholine-4-carboxamide 1,1-dioxide] | 270 fold | 37 nM |
| O=C(N1CCS(=O)(=O)CC1)N(Cc1ccc(-c2nnc(C(F)F)o2)cc1)c1ccc(-c2ccoc2)cc1 [Compound 21492, N-(4-(5-(difluoromethyl)-1,3,4-oxadiazol-2-yl)benzyl)-N-(4-(furan-3-yl)phenyl)thiomorpholine-4-carboxamide 1,1-dioxide] | 278 fold | 36 nM |
| O=C(N1CCS(=O)(=O)CC1)N(Cc1ccc(-c2nnc(C(F)F)o2)cc1)c1ccc(-c2ccc3c(c2)OCO3)cc1 [Compound 21494, N-(4-(benzo[d][1,3]dioxol-5-yl)phenyl)-N-(4-(5-(difluoromethyl)-1,3,4-oxadiazol-2-yl)benzyl)thiomorpholine-4-carboxamide 1,1-dioxide] | 89 fold | 112 nM |
| O=C(N1CCC2(CC1)CNC2)N(Cc1ccc(-c2nnc(C(F)F)o2)cc1F)c1ccccc1 [Compound 21495, N-(4-(5-(difluoromethyl)-1,3,4-oxadiazol-2-yl)-2-fluorobenzyl)-N-phenyl-2,7-diazaspiro[3.5]nonane-7-carboxamide] | 294 fold | 34 nM |
| CN1CC2(CCN(C(=O)N(Cc3ccc(-c4nnc(C(F)F)o4)cc3F)c3ccccc3)CC2)C1 [Compound 21496, N-(4-(5-(difluoromethyl)-1,3,4-oxadiazol-2-yl)-2-fluorobenzyl)-2-methyl-N-phenyl-2,7-diazaspiro[3.5]nonane-7-carboxamide] | 500 fold | 20 nM |
| O=C(N1CC2(CCNCC2)C1)N(Cc1ccc(-c2nnc(C(F)F)o2)cc1F)c1ccccc1 [Compound 21497, N-(4-(5-(difluoromethyl)-1,3,4-oxadiazol-2-yl)-2-fluorobenzyl)-N-phenyl-2,7-diazaspiro[3.5]nonane-2-carboxamide] | 294 fold | 34 nM |
| CN1CCC2(CC1)CN(C(=O)N(Cc1ccc(-c3nnc(C(F)F)o3)cc1F)c1ccccc1)C2 [Compound 21498, N-(4-(5-(difluoromethyl)-1,3,4-oxadiazol-2-yl)-2-fluorobenzyl)-7-methyl-N-phenyl-2,7-diazaspiro[3.5]nonane-2-carboxamide] | 714 fold | 14 nM |
| CCN1CCC2(CC1)CN(C(=O)N(Cc1ccc(-c3nnc(C(F)F)o3)cc1F)c1ccccc1)C2 [Compound 21499, N-(4-(5-(difluoromethyl)-1,3,4-oxadiazol-2-yl)-2-fluorobenzyl)-7-ethyl-N-phenyl-2,7-diazaspiro[3.5]nonane-2-carboxamide] | 588 fold | 17 nM |
| CC(=O)N1CCC2(CC1)CN(C(=O)N(Cc1ccc(-c3nnc(C(F)F)o3)cc1F)c1ccccc1)C2 [Compound 21500, 7-Acetyl-N-(4-(5-(difluoromethyl)-1,3,4-oxadiazol-2-yl)-2-fluorobenzyl)-N-phenyl-2,7-diazaspiro[3.5]nonane-2-carboxamide] | 400 fold | 25 nM |
| CS(=O)(=O)N1CCC2(CC1)CN(C(=O)N(Cc1ccc(-c3nnc(C(F)F)o3)cc1F)c1ccccc1)C2 [Compound 21501, N-(4-(5-(difluoromethyl)-1,3,4-oxadiazol-2-yl)-2-fluorobenzyl)-7-(methylsulfonyl)-N-phenyl-2,7-diazaspiro[3.5]nonane-2-carboxamide] | 357 fold | 28 nM |
